Measurements published in patent US8669256B2, “Substituted thieno[2,3-b]pyrazine compounds as modulators of B-Raf kinase activity” (Merck Sharp & Dohme B.V., priority 2010, dated 2014).
Like-named read-outs stand apart in the source and are kept apart here.

What was measured:
[1] = molecular target: T1, GST-tagged human recombinant active B-Raf (Δ1-415) (Homo sapiens, UniProt P15056); test: B-Raf kinase activity, IMAP coupled assay (B-Raf/MEK1/ERK2, fluorescence polarization); format: biochemical
T1 construct: GST; purchased Upstate/Millipore
T1 sequence (P15056 416-766, stated change not applied): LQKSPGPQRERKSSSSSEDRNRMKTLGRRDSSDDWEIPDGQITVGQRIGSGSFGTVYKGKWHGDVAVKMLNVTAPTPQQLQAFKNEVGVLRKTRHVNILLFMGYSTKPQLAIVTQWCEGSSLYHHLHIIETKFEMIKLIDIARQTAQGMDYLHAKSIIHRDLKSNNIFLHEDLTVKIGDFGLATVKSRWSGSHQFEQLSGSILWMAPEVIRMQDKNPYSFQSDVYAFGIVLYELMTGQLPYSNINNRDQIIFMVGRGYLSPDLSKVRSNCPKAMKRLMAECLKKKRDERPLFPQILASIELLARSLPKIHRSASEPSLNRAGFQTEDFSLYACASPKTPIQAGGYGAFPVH
Text: (§1) In another assay the B-Raf kinase activity can be determined by using an IMAP assay (Immobilized Metal Assay for Phosphochemicals-based coupled assay). IMAP is a homogeneous fluorescence polarization (FP) assay based on affinity capture of phosphorylated peptide substrates. IMAP uses fluorescein-labeled peptide substrates that, upon phosphorylation by a protein kinase, bind to so called IMAP nanoparticles, which are derivatized with trivalent metal complexes. Such binding causes a change in the rate of the molecular motion of the peptide, and results in an increase in the FP value observed for the fluorescein label attached to the substrate peptide. In such an assay, B-Raf phosphorylates unactive MEK1. The phosphorylated MEK1 is capable of phosphorylating ERK2, which subsequently phosphorylates the fluorescein-labeled peptide substrate.
Determination of B-Raf Kinase Activity using an IMAP Assay
as §1, with “Inhibition of” for “In another assay the”, “was measured” for “can be determined by”, “Immobilized” for “IMAP assay (Immobilized”, “assay (IMAP).” for “assay).”, “this” for “such an”
Enzymes, substrate and ATP were diluted at all steps in Kinase Reaction buffer (10 mM Tris-HCl, 10 mM MgCl2, 0.01% Tween-20, 0.05% NaN3 pH 7.2, 1 mM DTT). The final volume at the kinase reaction step of the assay in the 384-well plate was 20 μl. The concentrations within brackets are final concentrations in the assay. B-Raf (GST-tagged human recombinant active B-Raf (Δ1-415), Upstate/Millipore; 0.2 U/ml) was pre-incubated with compounds or DMSO (1% final concentration) for 60 minutes at room temperature in the dark. Thereafter, MEK 1 (GST-tagged human recombinant unactive MEK1 (full-length); 64 ng/ml), ERK2 (GST-tagged human recombinant unactive ERK2 (full-length); 600 ng/ml), peptide substrate (Erktide, Molecular Devices; 50 nM) and ATP (50 μM) were added to the wells and the mix was incubated for another 60 minutes at 30° C. in the dark. Then, IMAP progressive binding buffer (75% 1× buffer A, 25% 1× buffer B, 1:900 Progressive Binding Reagent; Molecular Devices) was added followed by an incubation step of 60 minutes at room temperature in the dark. Finally, the FP signal was read on an Envision Multilabel reader (Perkin Elmer).

[2] = system: phosphorylation of ERK1/2 in A375 cells containing mutant B-Raf (V600E); test: Phospho-ERK FACE assay in A375 (B-Raf mutated) melanoma cell line; format: cell-based; details: Homo sapiens, A-375; A375 cells, 2 hours incubation, between 1 μM and 100 nM (6<pIC50<7); read-out: IC50, A375 melanoma phospho-ERK assay
Procedure: The B-Raf activity can also be determined in a B-Raf mutated melanoma cell line, such as the A375 cell line. Inhibition of phosphorylation of ERK1/2 can be measured using a Fast Activated Cell-based ELISA (FACE) from Active Motif (Carlsbad, U.S.A., CA). E.g. A375 cells, which are cells containing a mutant form of B-Raf (V600E) and thus contain high levels of phosphorylated ERK, can be incubated with Raf inhibitors. Then cells can be incubated with anti-phospho-ERK antibody and subsequently with horse radish peroxidase (HRP)-labeled secondary antibody. Finally, chemiluminescence reagents can be added, which react with HRP, to give a luminescence signal.
Determination of B-Raf Activity Using a A375 (B-Raf mutated) Melanoma Cell Line (Phospho-ERK FACE Assay)
Inhibition of phosphorylation of ERK1/2 was measured using a Fast Activated Cell-based ELISA (FACE) from Active Motif (Carlsbad, U.S.A., CA). Briefly, A375 cells, which are cells containing a mutant form of B-Raf (V600E) and thus contain high levels of phosphorylated ERK, were incubated for 2 hours with Raf inhibitors. Then, cells were fixed with paraformaldehyde, washed and following quenching and blocking, incubated with anti-phospho-ERK antibody, and as a control, on a separate plate, with ERK antibody. After washing and removal of the primary antibodies, the fixed cells were incubated with horse radish peroxidase (HRP)-labeled secondary antibody. Finally, chemiluminescence reagents were added, which react with HRP, to give a luminescence signal.
Detailed protocol: A375 cells were cultured in DMEM/F12 (Dulbecco's Modified Eagle Medium Nutrient Mixture F-12) (Invitrogen), supplemented with 10% fetal bovine serum (FBS) (Biowhittaker), 100 U/ml penicillin G and 100 μg/ml streptomycin (Gibco). For the phospho ERK assay, cells were seeded at a density of 15,000 cells/well in 100 μl culture medium in 96-well plates and incubated in a humidified atmosphere at 5% CO2 and 37° C. After 24 hours, cells were washed with DMEM/F12 supplemented with 0.1% FBS (assay medium 120 μl of assay medium was added and the plates were incubated overnight in a humidified atmosphere at 5% CO2 and 37° C. The next day, the assay medium was removed and compounds diluted in assay medium were added to the cells. Final DMSO concentration in the assay was 1%. After 2 hours incubation, cells were fixed by replacing the assay medium with 100 μl of 4% formaldehyde (Bio-Connect, Huissen, The Netherlands) in PBS. After 20 minutes of incubation at room temperature, cells were washed three times with 200 μl wash buffer (0.1% (vol/vol) Triton X-100 in PBS from the FACE kit) followed by an incubation of 20 minutes with 100 μl quenching buffer, containing 1% (vol/vol) hydrogen peroxide (Thermo Fisher Scientific) and 0.1% (vol/vol) sodium azide (Sigma-Aldrich) in phosphate-buffered saline. Cells were washed two times with wash buffer, incubated for 1 hour with 100 μl antibody blocking buffer from the kit and washed two times again. 40 μl of diluted antibody against phosphorylated ERK1/2 (1:500 from the FACE kit) was added and incubated overnight at 4° C. The phospho-ERK antibody has been raised against a synthetic phospho-peptide corresponding to residues Thr202 and Tyr204 of human ERK1 and Thr185 and Tyr187 of human ERK2. For the detection of total ERK, antibody against ERK1 and ERK2 (1:500 from the FACE kit) was added. The excessive primary antibody was washed out, and 100 μl diluted HRP-conjugated anti-rabbit IgG (1:2000 from the FACE kit) was added and incubated for 1 hour at room temperature. Secondary antibody was removed and cells were washed 3 times with wash buffer and twice with PBS. 50 μl per well of FACE chemiluminescent working solution was added. Chemiluminescence was measured on an Envision Multilabel reader.

[3] = bounds also given as pIC50 (>6, >7, >8), 60 min pre-incubation with compound, ATP 50 μM, read-out: IC50, B-Raf IMAP assay

| SMILES | IC50 [1, 3] [nM] | IC50 [2] [nM] | IC50 [1] [nM] |
| --- | --- | --- | --- |
| Cc1ccc(NC(=O)c2cccc(C(F)(F)F)c2)cc1NC(=O)c1cc2nc(-c3cccnc3)cnc2s1 [Example 53, N-(2-methyl-5-(3-(trifluoromethyl)benzamido)phenyl)-2-(pyridin-3-yl)thieno[2,3-b]pyrazine-6-carboxamide] | < 100 | 100 to 1000 |  |
| COc1ccc(C(=O)Nc2ccc(C)c(NC(=O)c3cc4nccnc4s3)c2)cc1C(F)(F)F [Example 28, N-(5-(4-methoxy-3-(trifluoromethyl)benzamido)-2-methylphenyl)thieno[2,3-b]pyrazine-6-carboxamide] | < 100 | 100 to 1000 |  |
| Cc1ccc(NC(=O)c2cccc(C(C)(C)C#N)c2)cc1NC(=O)c1cc2[nH]c(=O)cnc2s1 [Example 58, N-(5-(3-(2-cyanopropan-2-yl)benzamido)-2-methylphenyl)-2-oxo-1,2-dihydrothieno[2,3-b]pyrazine-6-carboxamide] | < 100 |  |  |
| CC(C)(C#N)c1cccc(C(=O)Nc2ccc(C#N)c(NC(=O)c3cc4nccnc4s3)c2)c1 [Example 52, N-(2-cyano-5-(3-(2-cyanopropan-2-yl)benzamido)phenyl)thieno[2,3-b]pyrazine-6-carboxamide] | < 100 |  |  |
| CCOc1cnc2cc(C(=O)Nc3cc(NC(=O)c4cccc(C(C)(C)C#N)c4)ccc3C)sc2n1 [Example 71, N-(5-(3-(2-cyanopropan-2-yl)benzamido)-2-methylphenyl)-3-ethoxythieno[2,3-b]pyrazine-6-carboxamide] | < 100 |  |  |
| Cc1ccc(NC(=O)c2cccc(-n3cccn3)c2)cc1NC(=O)c1cc2nccnc2s1 [Example 34, N-(5-(3-(1H-pyrazol-1-yl)benzamido)-2-methylphenyl)thieno[2,3-b]pyrazine-6-carboxamide] | < 100 |  |  |
| Cc1ccc(NC(=O)c2cccc(C(C)(C)C#N)c2)cc1/N=C(\C#N)c1cc2nccnc2s1 [Example 56, (E)-N-(5-(3-(2-cyanopropan-2-yl)benzamido)-2-methylphenyl)thieno[2,3-b]pyrazine-6-carbimidoyl cyanide] |  |  | < 100 |
| CCOc1cnc2sc(C(=O)Nc3cc(NC(=O)c4cccc(C(C)(C)C#N)c4)ccc3C)cc2n1 [Example 76, N-(5-(3-(2-cyanopropan-2-yl)benzamido)-2-methylphenyl)-2-ethoxythieno[2,3-b]pyrazine-6-carboxamide] | < 100 |  |  |
| Cc1ccc(NC(=O)c2ccnc(N(C)C)c2)cc1NC(=O)c1cc2nccnc2s1 [Example 25, N-(5-(2-(dimethylamino)isonicotinamido)-2-methylphenyl)thieno[2,3-b]pyrazine-6-carboxamide] | < 100 |  |  |

Further lines, with some results ahead:

| IC50 [1, 3] [nM] | IC50 [2] [nM] | SMILES | IC50 [1] [nM] |
| --- | --- | --- | --- |
| < 100 |  | Cc1ccc(NC(=O)c2cccc(C(C)(C)C#N)c2)cc1NC(=O)c1cc2nc(Cl)cnc2s1 [Example 12, 2-chloro-N-(5-(3-(2-cyanopropan-2-yl)benzamido)-2-methylphenyl)thieno[2,3-b]pyrazine-6-carboxamide] |  |
| < 10 |  | Cc1ccc(NC(=O)c2cccc(C(C)(C)C#N)c2)cc1NC(=O)c1cc2ncc(N(C)C)nc2s1 [Example 60, N-(5-(3-(2-cyanopropan-2-yl)benzamido)-2-methylphenyl)-3-(dimethylamino)thieno[2,3-b]pyrazine-6-carboxamide] |  |
| < 10 |  | Cc1ccc(NC(=O)c2cccc(C(C)(C)C#N)c2)cc1NC(=O)c1cc2nc(-c3cncnc3)cnc2s1 [Example 22, N-(5-(3-(2-cyanopropan-2-yl)benzamido)-2-methylphenyl)-2-(pyrimidin-5-yl)thieno[2,3-b]pyrazine-6-carboxamide] |  |
| < 100 |  | Cc1ccc(NC(=O)c2cccc(-c3ccsc3)c2)cc1NC(=O)c1cc2nccnc2s1 [Example 57, N-(2-methyl-5-(3-(thiophen-3-yl)benzamido)phenyl)thieno[2,3-b]pyrazine-6-carboxamide] |  |
| < 100 |  | Cc1ccc(NC(=O)c2cccc(C(C)(C)C#N)c2)cc1NCc1cc2nccnc2s1 [Example 47, 3-(2-cyanopropan-2-yl)-N-(4-methyl-3-(thieno[2,3-b]pyrazin-6-ylmethylamino)phenyl)benzamide] |  |
| < 100 |  | Cc1ccc(NC(=O)c2cccc(C(C)(C)C#N)c2)cc1NC(=O)c1cc2nc(-c3cnc(N(C)C)nc3)cnc2s1 [Example 23, N-(5-(3-(2-cyanopropan-2-yl)benzamido)-2-methylphenyl)-2-(2-(dimethylamino)pyrimidin-5-yl)thieno[2,3-b]pyrazine-6-carboxamide] |  |
| < 100 |  | Cc1ccc(C(=O)Nc2cccc(C(F)(F)F)c2)cc1NC(=O)c1sc2nccnc2c1N [Example 74, 7-amino-N-(2-methyl-5-(3-(trifluoromethyl)phenylcarbamoyl)phenyl)thieno[2,3-b]pyrazine-6-carboxamide] |  |
| < 100 |  | Cc1ccc(NC(=O)c2ccc(CN3CCN(C)CC3)c(C(F)(F)F)c2)cc1NC(=O)c1cc2nccnc2s1 [Example 33, N-(2-methyl-5-(4-((4-methylpiperazin-1-yl)methyl)-3-(trifluoromethyl)benzamido)phenyl)thieno[2,3-b]pyrazine-6-carboxamide] |  |
| < 100 |  | Cc1ccc(C(=O)Nc2cccc(C(F)(F)F)c2)cc1NC(=O)c1cc2nccnc2s1 [Example 48, N-(2-methyl-5-(3-(trifluoromethyl)phenylcarbamoyl)phenyl)-thieno[2,3-b]pyrazine-6-carboxamide] |  |
|  | 100 to 1000 | CNc1cnc2cc(C(=O)Nc3cc(NC(=O)c4cccc(C(C)(C)C#N)c4)ccc3C)sc2n1 [Example 59, N-(5-(3-(2-cyanopropan-2-yl)benzamido)-2-methylphenyl)-3-(methylamino)thieno[2,3-b]pyrazine-6-carboxamide] |  |
